“Also recorded” adds a separate entry of the source.
Test system: prostaglandin D2 generation following 48/80-induced mast cell degranulation
Assay: In vivo mast cell activation: compound 48/80 challenge, peritoneal lavage PGD2 by LC/MS/MS
Parameters: species or system mouse
Settings: normal C57Bl6/N mice, oral 0.01-1.0 mg/kg ~1 hour prior to 48/80 (i.p.), lavage 7 minutes afterwards
Experimental: In Vivo Mast Cell Activation
Mice were randomized by body weight into 8 groups (n=8): Vehicle (0.5% HPML with 0.1% Tween80)+phosphate buffered saline (PBS), vehicle+compound 48/80 (0.75 mg/mL) and compound 48/80+Example 16 at various doses ranging from 0.01 mg/kg to 1.0 mg/kg.
C57BL mice were dosed orally with vehicle, or Example 16 at 0.01, 0.03, 0.1, 0.3, & 1.0 mg/kg. One hour later, blood samples were withdrawn via tail snip for measurement of drug levels, and mice were then terminally anesthetized with 2% isoflurane and given an intraperitoneal injection of 0.2 mL PBS or compound 48/80 solution (0.75 mg/mL, Sigma), followed by gentle massage of the abdomen. […]
Samples were thawed at room temperature and vortex-mixed. […] The plate was vortex-mixed for 30 seconds at 1000 rpm and analyzed by LC/MS/MS.
The analytical system consisted of a CTC HTS PAL autoinjector (Leap, Carrboro, N.C.), an Agilent 1290 Infinity binary pump and thermostated column compartment (Agilent Technologies, Santa Clara, Calif.) and an AB Sciex QTRAP 5500 mass spectrometer (AB Sciex, Framingham, Mass.). […] The analytes were detected by multiple reaction monitoring (MRM) in negative mode using Turbolon spray with the transitions of m/z 351/271 amu for PGD2/PGE2 and m/z 360/280 amu for PGD2-d9/PGE2-d9. Data were acquired, analyzed and quantified using Analyst software version 1.6.2 (AB Sciex, Framingham, Mass.). […]

CC1(C)C[C@H](NC(=O)c2cnc(-c3cc(F)cc(Cl)c3)s2)C(=O)N1 (single isomer, unassigned) [Example 16]
PGD2 generation in peritoneal lavage fluid following compound 48/80 challenge (FIG. 2): prevents 48/80-induced PGD2 generation; also recorded: Dose-Dependent Reduction in Peritoneal Lavage Fluid PGD2
